Values joined by “and” are separate entries in the source; they are usually repeats but may differ in a detail not shown here. Equal values may be shown once.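 Cultured in 96-well plates, cells were exposed to test compound for 48 hours across five concentrations. Here, GI50 denotes the concentration required for 50% inhibition of growth. The concentration for full growth arrest is given as TGI.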
Each compound was assayed on COLO 205 colon (assay: inhibition of tumour cell growth, NCI panel, 48 h).

| SMILES | GI50 | TGI |
| --- | --- | --- |
| C#CCOc1cccc(Nc2ncnc3c(NC(=O)C=C)cccc23)c1 | 24.6 µM | 73.4 µM |
| O=C(/C(=C\c1c(-c2ccccc2)[nH]c2ccccc12)S(=O)(=O)c1ccccc1)c1ccccc1 | 7.8 µM | > 100 µM |
| CCNC(=O)/C(=C/c1ccc(OC)cc1)c1cc(OC)c(OC)c(OC)c1 | – | 24.8 µM |
| Cc1ccc(OCCOCCOCCOCCOc2ccc(C)n(O)c2=S)c(=S)n1O | 0.0484 µM | > 100 µM |
| COc1ccc(-c2ccc3c(N4CCOC[C@@H]4C)nc(N4CCOC[C@@H]4C)nc3n2)cc1CO | 0.00502 µM and 0.0474 µM | – |
| N[C@H](CCC(=O)N[C@@H](Cc1c[nH]c2ccccc12)C(=O)O)C(=O)O | > 100 µM | > 100 µM |
| Nc1ccccc1O.O.O=C(O)C1[O][Sb][O]C1C(=O)O (stereo not drawn) | 18.7 µM | 35.3 µM |
| O=C(c1ccco1)c1c(C(F)(F)F)n([O-])c2ccc(C(F)(F)F)cc2[n+]1=O | 0.468 µM | 0.987 µM |
| OC(c1cc(-c2ccc(C(F)(F)F)cc2)nc(C(F)(F)F)c1)C1CCCCN1 (stereo not drawn) | – | 3.42 µM and 3.15 µM |
| CC(C)CC(C/C=C1/CC(CO)(COC(=O)C(C)(C)C)OC1=O)CC(C)C (stereo not drawn) | – | 0.958 µM |
| CN(C)C(=S)SSC(=S)N(C)C | – | 29.3 µM |
| CCCC/C(=C\C1=C(C)C(=O)C(OC)=C(OC)C1=O)C(=O)O | > 100 µM | > 100 µM |
| CCc1ccc2c(c1)C(=O)c1c-2n(CCCN=[N+]=[N-])c(=O)c2cc([N+](=O)[O-])ccc12 | > 50 µM | > 50 µM |
| Cn1c(=O)c2c(nc(C(=N)SCC(=O)O)n2C)n(C)c1=O | – | 71.5 µM |
| COc1ccc(C(CC(=O)c2ccc3c(c2)OCO3)c2c(O)c3ccccc3oc2=O)cc1OC (stereo not drawn) | – | > 100 µM |
| Nc1cc(Br)c(-c2nnc(CCC(=O)c3nc4ccccc4[nH]3)o2)c(Br)c1 | 11.8 µM | 30.8 µM |
| CCC/C=C/C=C/C1CC(O)C(O)C(=O)C1CO (stereo not drawn) | – | > 100 µM |
| COc1ccc(/C(C)=C(\c2ccc(OCCN3CCCCCC3)cc2)c2ccc(OC(=O)C3CCCCC3)cc2)cc1 | 0.626 µM | 4.06 µM |

Each compound was assayed on CAKI-1 renal (assay: inhibition of tumour cell growth, NCI panel, 48 h).

| SMILES | GI50 | TGI |
| --- | --- | --- |
| C#CCOc1cccc(Nc2ncnc3c(NC(=O)C=C)cccc23)c1 | 26.4 µM | > 100 µM |
| O=C(/C(=C\c1c(-c2ccccc2)[nH]c2ccccc12)S(=O)(=O)c1ccccc1)c1ccccc1 | 3.13 µM | > 100 µM |
| CCNC(=O)/C(=C/c1ccc(OC)cc1)c1cc(OC)c(OC)c(OC)c1 | – | > 100 µM |
| Cc1ccc(OCCOCCOCCOCCOc2ccc(C)n(O)c2=S)c(=S)n1O | < 0.0146 µM | > 100 µM |
| COc1ccc(-c2ccc3c(N4CCOC[C@@H]4C)nc(N4CCOC[C@@H]4C)nc3n2)cc1CO | 0.00473 µM and 0.0302 µM | 5.15 µM |
| N[C@H](CCC(=O)N[C@@H](Cc1c[nH]c2ccccc12)C(=O)O)C(=O)O | > 100 µM | > 100 µM |
| Nc1ccccc1O.O.O=C(O)C1[O][Sb][O]C1C(=O)O (stereo not drawn) | 3.78 µM | 12.3 µM |
| O=C(c1ccco1)c1c(C(F)(F)F)n([O-])c2ccc(C(F)(F)F)cc2[n+]1=O | 0.224 µM | 0.49 µM |
| OC(c1cc(-c2ccc(C(F)(F)F)cc2)nc(C(F)(F)F)c1)C1CCCCN1 (stereo not drawn) | 1.48 µM | 2.81 µM and 17.7 µM |
| CC(C)CC(C/C=C1/CC(CO)(COC(=O)C(C)(C)C)OC1=O)CC(C)C (stereo not drawn) | 7.62 µM and 1.19 µM | 21.5 µM and 9.68 µM |
| CN(C)C(=S)SSC(=S)N(C)C | 15.9 µM and 61.5 µM and 21.1 µM | 31.4 µM and > 100 µM and 40.1 µM |
| CCCC/C(=C\C1=C(C)C(=O)C(OC)=C(OC)C1=O)C(=O)O | > 100 µM | > 100 µM |
| CCc1ccc2c(c1)C(=O)c1c-2n(CCCN=[N+]=[N-])c(=O)c2cc([N+](=O)[O-])ccc12 | > 50 µM | > 50 µM |
| Cn1c(=O)c2c(nc(C(=N)SCC(=O)O)n2C)n(C)c1=O | – | 99 µM |
| COc1ccc(C(CC(=O)c2ccc3c(c2)OCO3)c2c(O)c3ccccc3oc2=O)cc1OC (stereo not drawn) | – | > 100 µM |
| Nc1cc(Br)c(-c2nnc(CCC(=O)c3nc4ccccc4[nH]3)o2)c(Br)c1 | 19.8 µM | > 100 µM |
| CCC/C=C/C=C/C1CC(O)C(O)C(=O)C1CO (stereo not drawn) | – | > 100 µM |
| COc1ccc(/C(C)=C(\c2ccc(OCCN3CCCCCC3)cc2)c2ccc(OC(=O)C3CCCCC3)cc2)cc1 | 0.705 µM | 2.61 µM |

Each compound was assayed on ACHN renal (assay: inhibition of tumour cell growth, NCI panel, 48 h).

| SMILES | GI50 | TGI |
| --- | --- | --- |
| C#CCOc1cccc(Nc2ncnc3c(NC(=O)C=C)cccc23)c1 | 17.8 µM | 63.4 µM |
| O=C(/C(=C\c1c(-c2ccccc2)[nH]c2ccccc12)S(=O)(=O)c1ccccc1)c1ccccc1 | 6.67 µM | > 100 µM |
| CCNC(=O)/C(=C/c1ccc(OC)cc1)c1cc(OC)c(OC)c(OC)c1 | – | > 100 µM |
| Cc1ccc(OCCOCCOCCOCCOc2ccc(C)n(O)c2=S)c(=S)n1O | < 0.0147 µM | > 100 µM |
| COc1ccc(-c2ccc3c(N4CCOC[C@@H]4C)nc(N4CCOC[C@@H]4C)nc3n2)cc1CO | 0.00495 µM and 0.0209 µM | > 100 µM |
| N[C@H](CCC(=O)N[C@@H](Cc1c[nH]c2ccccc12)C(=O)O)C(=O)O | > 100 µM | > 100 µM |
| Nc1ccccc1O.O.O=C(O)C1[O][Sb][O]C1C(=O)O (stereo not drawn) | 16.1 µM | 29.8 µM |
| O=C(c1ccco1)c1c(C(F)(F)F)n([O-])c2ccc(C(F)(F)F)cc2[n+]1=O | 0.168 µM | 0.362 µM |
| OC(c1cc(-c2ccc(C(F)(F)F)cc2)nc(C(F)(F)F)c1)C1CCCCN1 (stereo not drawn) | 1.56 µM and 2.37 µM | 2.9 µM and 6.39 µM |
| CC(C)CC(C/C=C1/CC(CO)(COC(=O)C(C)(C)C)OC1=O)CC(C)C (stereo not drawn) | 11.4 µM and 5.25 µM | 24.1 µM and 21.3 µM |
| CN(C)C(=S)SSC(=S)N(C)C | 15.7 µM and 55.6 µM and 19.7 µM | 30.2 µM and > 100 µM and 37.1 µM |
| CCCC/C(=C\C1=C(C)C(=O)C(OC)=C(OC)C1=O)C(=O)O | > 100 µM | > 100 µM |
| CCc1ccc2c(c1)C(=O)c1c-2n(CCCN=[N+]=[N-])c(=O)c2cc([N+](=O)[O-])ccc12 | > 50 µM | > 50 µM |
| Cn1c(=O)c2c(nc(C(=N)SCC(=O)O)n2C)n(C)c1=O | – | > 100 µM |
| COc1ccc(C(CC(=O)c2ccc3c(c2)OCO3)c2c(O)c3ccccc3oc2=O)cc1OC (stereo not drawn) | – | > 100 µM |
| Nc1cc(Br)c(-c2nnc(CCC(=O)c3nc4ccccc4[nH]3)o2)c(Br)c1 | 48 µM | > 100 µM |
| CCC/C=C/C=C/C1CC(O)C(O)C(=O)C1CO (stereo not drawn) | – | > 100 µM |
| COc1ccc(/C(C)=C(\c2ccc(OCCN3CCCCCC3)cc2)c2ccc(OC(=O)C3CCCCC3)cc2)cc1 | 1.73 µM | 3.56 µM |

The compounds below were run on SNB-19 CNS (assay: inhibition of tumour cell growth, NCI panel, 48 h).

| SMILES | GI50 | TGI |
| --- | --- | --- |
| C#CCOc1cccc(Nc2ncnc3c(NC(=O)C=C)cccc23)c1 | 39.5 µM | > 100 µM |
| O=C(/C(=C\c1c(-c2ccccc2)[nH]c2ccccc12)S(=O)(=O)c1ccccc1)c1ccccc1 | > 100 µM | > 100 µM |
| CCNC(=O)/C(=C/c1ccc(OC)cc1)c1cc(OC)c(OC)c(OC)c1 | – | > 100 µM |
| Cc1ccc(OCCOCCOCCOCCOc2ccc(C)n(O)c2=S)c(=S)n1O | 0.221 µM | > 100 µM |
| COc1ccc(-c2ccc3c(N4CCOC[C@@H]4C)nc(N4CCOC[C@@H]4C)nc3n2)cc1CO | 0.00693 µM and 0.0491 µM | > 100 µM |
| N[C@H](CCC(=O)N[C@@H](Cc1c[nH]c2ccccc12)C(=O)O)C(=O)O | > 100 µM | > 100 µM |
| Nc1ccccc1O.O.O=C(O)C1[O][Sb][O]C1C(=O)O (stereo not drawn) | 55.5 µM | > 100 µM |
| O=C(c1ccco1)c1c(C(F)(F)F)n([O-])c2ccc(C(F)(F)F)cc2[n+]1=O | 1.51 µM | 2.92 µM |
| OC(c1cc(-c2ccc(C(F)(F)F)cc2)nc(C(F)(F)F)c1)C1CCCCN1 (stereo not drawn) | 1.53 µM and 5.66 µM | 2.92 µM and 13.5 µM |
| CC(C)CC(C/C=C1/CC(CO)(COC(=O)C(C)(C)C)OC1=O)CC(C)C (stereo not drawn) | – | 23.4 µM and 18.5 µM |
| CN(C)C(=S)SSC(=S)N(C)C | 25.4 µM | > 100 µM |
| CCCC/C(=C\C1=C(C)C(=O)C(OC)=C(OC)C1=O)C(=O)O | > 100 µM | > 100 µM |
| CCc1ccc2c(c1)C(=O)c1c-2n(CCCN=[N+]=[N-])c(=O)c2cc([N+](=O)[O-])ccc12 | > 50 µM | > 50 µM |
| Cn1c(=O)c2c(nc(C(=N)SCC(=O)O)n2C)n(C)c1=O | – | > 100 µM |
| COc1ccc(C(CC(=O)c2ccc3c(c2)OCO3)c2c(O)c3ccccc3oc2=O)cc1OC (stereo not drawn) | – | > 100 µM |
| Nc1cc(Br)c(-c2nnc(CCC(=O)c3nc4ccccc4[nH]3)o2)c(Br)c1 | 20.1 µM | > 100 µM |
| CCC/C=C/C=C/C1CC(O)C(O)C(=O)C1CO (stereo not drawn) | – | > 100 µM |
| COc1ccc(/C(C)=C(\c2ccc(OCCN3CCCCCC3)cc2)c2ccc(OC(=O)C3CCCCC3)cc2)cc1 | 2.45 µM | 10.5 µM |

What follows are compounds tested on PC-3 prostate (assay: inhibition of tumour cell growth, NCI panel, 48 h).

| SMILES | GI50 | TGI |
| --- | --- | --- |
| C#CCOc1cccc(Nc2ncnc3c(NC(=O)C=C)cccc23)c1 | 15.9 µM | 67.1 µM |
| O=C(/C(=C\c1c(-c2ccccc2)[nH]c2ccccc12)S(=O)(=O)c1ccccc1)c1ccccc1 | 4.96 µM | > 100 µM |
| CCNC(=O)/C(=C/c1ccc(OC)cc1)c1cc(OC)c(OC)c(OC)c1 | – | > 100 µM |
| Cc1ccc(OCCOCCOCCOCCOc2ccc(C)n(O)c2=S)c(=S)n1O | 0.0155 µM | > 100 µM |
| COc1ccc(-c2ccc3c(N4CCOC[C@@H]4C)nc(N4CCOC[C@@H]4C)nc3n2)cc1CO | 0.00478 µM and < 0.0109 µM | > 100 µM |
| N[C@H](CCC(=O)N[C@@H](Cc1c[nH]c2ccccc12)C(=O)O)C(=O)O | > 100 µM | > 100 µM |
| Nc1ccccc1O.O.O=C(O)C1[O][Sb][O]C1C(=O)O (stereo not drawn) | 25.8 µM | > 100 µM |
| O=C(c1ccco1)c1c(C(F)(F)F)n([O-])c2ccc(C(F)(F)F)cc2[n+]1=O | 0.132 µM | 0.262 µM |
| OC(c1cc(-c2ccc(C(F)(F)F)cc2)nc(C(F)(F)F)c1)C1CCCCN1 (stereo not drawn) | 1.72 µM | 3.37 µM and 6.33 µM |
| CC(C)CC(C/C=C1/CC(CO)(COC(=O)C(C)(C)C)OC1=O)CC(C)C (stereo not drawn) | – | 21.2 µM and 21.6 µM |
| CN(C)C(=S)SSC(=S)N(C)C | – | 26.6 µM and > 100 µM and 32 µM |
| CCCC/C(=C\C1=C(C)C(=O)C(OC)=C(OC)C1=O)C(=O)O | > 100 µM | > 100 µM |
| CCc1ccc2c(c1)C(=O)c1c-2n(CCCN=[N+]=[N-])c(=O)c2cc([N+](=O)[O-])ccc12 | > 50 µM | > 50 µM |
| Cn1c(=O)c2c(nc(C(=N)SCC(=O)O)n2C)n(C)c1=O | – | > 100 µM |
| COc1ccc(C(CC(=O)c2ccc3c(c2)OCO3)c2c(O)c3ccccc3oc2=O)cc1OC (stereo not drawn) | – | > 100 µM |
| Nc1cc(Br)c(-c2nnc(CCC(=O)c3nc4ccccc4[nH]3)o2)c(Br)c1 | 2.9 µM | > 100 µM |
| CCC/C=C/C=C/C1CC(O)C(O)C(=O)C1CO (stereo not drawn) | – | > 100 µM |
| COc1ccc(/C(C)=C(\c2ccc(OCCN3CCCCCC3)cc2)c2ccc(OC(=O)C3CCCCC3)cc2)cc1 | 0.541 µM | 2.38 µM |
